Experimental data: patent US20090233942A1, “Genetic markers associated with response to antidepressants” (priority 2008, published 2009)

Test system: adult patients diagnosed with MDD
Experiment: Eight-week randomized, double-blind, placebo-controlled study: association of sequenced gene markers (Tables 1-17) with vilazodone response as change of MADRS
Format: in vivo, human
Settings: mean MADRS decrease
From the text: There was a wide range of inter-individual variability in response to vilazodone as well as to placebo and the active comparators. This variability may be partially due to genetic differences among the individuals treated. This example illustrates a randomized, double-blind, placebo-controlled, multicenter, eight-week study designed to discover genetic markers of response to vilazodone in adult patients diagnosed with MDD by the DSM-IV-TR criteria. Patients must have met all of the following inclusion criteria to be considered for enrollment in the study: (1) 18-65 years of age; (2) diagnosis of MDD, single episode or recurrent, according to DSM-IV-TR (296.2/296.3) with a current Major Depressive Episode of less than one year's duration with a minimum duration of at least 4 weeks; (3) HAM-D score≧22 on the first 17 items of the 21-item HAM-D at screening and baseline visits; (4) HAM-D item 1 (depressed mood) score≧2 at the screening visit and the baseline visit; (5) provision of written informed consent to participate; and (6) ability to speak, read and understand English and to respond to questions and follow simple instructions.
Following randomization into vilazodone and placebo groups, patients began the forced titration schedule. Patients received 10 mg qd until Visit 3 (approximately Day 7). At Visit 3 patients received 20 mg qd until Visit 4 (approximately Day 14). At Visit 4 patients received the target dose of 40 mg qd (approximately Day 15). A total of 152 patients completed the vilazodone arm, while 154 patients completed the placebo arm.
This example illustrates genotyping of the study group for the ACE, ATP5C3, BCL2L1, CYP2C9, DRD3, FOS, DTNBP1, GABRG3, GRIA4, LAMA4, MAPK1, NPY1R, OPRD1, OPRM1, PER3, PLCB1, and PSMD1 polymorphic sites selected by the inventors herein for analysis. Genomic DNA was isolated from blood obtained from each individual and amplified target regions containing the polymorphic sites in Tables A-21 to A-37 (Appendix A) were sequenced to determine the genotypes at these polymorphic sites. Tailed (Universal M13 Forward and Reverse) PCR primers were designed using the sequence of SEQ ID NO:1 for ACE, SEQ ID NO:2 for ATP5C3, SEQ ID NO:3 for BCL2L1, SEQ ID NO:4 for CYP2C9, SEQ ID NO:5 for DRD3, SEQ ID NO:6 for FOS, SEQ ID NO:7 for DTNBP1, SEQ ID NO:8 for GABRG3, SEQ ID NO:9 for GRIA4, SEQ ID NO:10 for LAMA4, SEQ ID NO:11 for MAPK1, SEQ ID NO:12 for NPY1R, SEQ ID NO:13 for OPRD1, SEQ ID NO:14 for OPRM1, SEQ ID NO:15 for PER3, SEQ ID NO:16 for PLCB1, and SEQ ID NO:17 for PSMD1. Amplified PCR products were sequenced using Applied Biosystems' Big Dye® Terminator v 3.1 cycle sequencing kit according to manufacturer's instructions. The reaction products were then electrophoresed using an Applied Biosystems 3700 or 3730xl DNA analyzer. Polymorphisms were identified using the Polyphred program, and confirmed by visual inspection.
Haplotypes were estimated from the unphased genotypes using a computer-implemented algorithm for assigning haplotypes to unrelated individuals in a population sample, essentially as described in WO 01/80156. In this method, haplotypes are assigned directly from individuals who are homozygous at all sites or heterozygous at no more than one of the variable sites. This list of haplotypes is then used to deconvolute the unphased genotypes in the remaining (multiply heterozygous) individuals.
This example illustrates analysis of the markers in Tables A-1 to A-17 (Appendix A) for association with vilazodone response. A proprietary algorithm was used as a tool for finding associations between markers and outcomes. The clinical outcomes were improvement in disease over eight weeks of treatment with vilazodone as measured by the MADRS scale. A linear model was first fitted on the covariates, which were treatment center, race, ethnicity, and baseline values. […]

[1] = PLCB1 marker 1, carriers vs non-carriers
[2] = PLCB1 marker 2, carriers vs non-carriers
[3] = PLCB1 marker 3, carriers vs non-carriers
[4] = PLCB1 marker 4, carriers vs non-carriers
[5] = PLCB1 marker 5, carriers vs non-carriers
[6] = PLCB1 marker 6, carriers vs non-carriers
[7] = PLCB1 marker 7, carriers vs non-carriers
[8] = PLCB1 marker 8, carriers vs non-carriers
[9] = PLCB1 marker 9, carriers vs non-carriers
[10] = PLCB1 marker 10, carriers vs non-carriers
[11] = PLCB1 marker 11, carriers vs non-carriers
[12] = PLCB1 marker 12, carriers vs non-carriers
[13] = PLCB1 marker 13, carriers vs non-carriers
[14] = PLCB1 marker 17, carriers vs non-carriers
[15] = PLCB1 marker 18, carriers vs non-carriers
[16] = PLCB1 marker 19, carriers vs non-carriers
[17] = PLCB1 marker 20, carriers vs non-carriers
[18] = PLCB1 marker 21, carriers vs non-carriers
[19] = PLCB1 marker 22, carriers vs non-carriers
[20] = PLCB1 marker 23, carriers vs non-carriers
[21] = PLCB1 marker 24, carriers vs non-carriers
[22] = PLCB1 marker 25, carriers vs non-carriers
[23] = PLCB1 marker 26, carriers vs non-carriers
[24] = PLCB1 marker 27, carriers vs non-carriers
[25] = PLCB1 marker 28, carriers vs non-carriers
[26] = PLCB1 marker 29, carriers vs non-carriers
[27] = PLCB1 marker 30, carriers vs non-carriers
[28] = PLCB1 marker 31, carriers vs non-carriers
[29] = PLCB1 marker 32, carriers vs non-carriers
[30] = PLCB1 marker 33, carriers vs non-carriers
[31] = PLCB1 marker 34, carriers vs non-carriers
[32] = PLCB1 marker 35, carriers vs non-carriers
[33] = PLCB1 marker 36, carriers vs non-carriers
[34] = PLCB1 marker 37, carriers vs non-carriers
[35] = PLCB1 marker 38, carriers vs non-carriers
[36] = PLCB1 marker 39, carriers vs non-carriers
[37] = PLCB1 marker 40, carriers vs non-carriers
[38] = PLCB1 marker 41, carriers vs non-carriers
[39] = PLCB1 marker 42, carriers vs non-carriers
[40] = PLCB1 marker 43, carriers vs non-carriers
[41] = PLCB1 marker 44, carriers vs non-carriers
[42] = PLCB1 marker 45, carriers vs non-carriers
[43] = PLCB1 marker 46, carriers vs non-carriers
[44] = PLCB1 marker 47, carriers vs non-carriers
[45] = PLCB1 marker 48, carriers vs non-carriers
[46] = PLCB1 marker 49, carriers vs non-carriers
[47] = PLCB1 marker 50, carriers vs non-carriers
[48] = PLCB1 marker 51, carriers vs non-carriers
[49] = PLCB1 marker 52, carriers vs non-carriers
[50] = PLCB1 marker 53, carriers vs non-carriers

Cl.N#Cc1ccc2[nH]cc(CCCCN3CCN(c4ccc5oc(C(N)=O)cc5c4)CC3)c2c1 [Vilazodone, 5-{4-[4-(5-Cyano-3-indolyl)-butyl]-1-piperazinyl}-benzofuran-2-carboxamide hydrochloride]
Response difference (Cauc. only) [1]: −6.1
Response difference (all ethnic.) [1]: −4.8
Response difference (Cauc. only) [2]: −6.2
Response difference (all ethnic.) [2]: −4.8
Response difference (Cauc. only) [3]: −6.5
Response difference (all ethnic.) [3]: −5.1
Response difference (Cauc. only) [4]: −6.6
Response difference (all ethnic.) [4]: −5.1
Response difference (Cauc. only) [5]: −5.9
Response difference (all ethnic.) [5]: −4.3
Response difference (Cauc. only) [6]: −6
Response difference (all ethnic.) [6]: −4.3
Response difference (Cauc. only) [7]: −5.4
Response difference (all ethnic.) [7]: −3.9
Response difference (Cauc. only) [8]: −6
Response difference (all ethnic.) [8]: −4.3
Response difference (Cauc. only) [9]: −6.4
Response difference (all ethnic.) [9]: −5.1
Response difference (Cauc. only) [10]: −5.8
Response difference (all ethnic.) [10]: −4.6
Response difference (Cauc. only) [11]: −6.4
Response difference (all ethnic.) [11]: −5.2
Response difference (Cauc. only) [12]: −7
Response difference (all ethnic.) [12]: −5.6
Response difference (Cauc. only) [13]: −6.2
Response difference (all ethnic.) [13]: −4.9
Response difference (Cauc. only) [14]: −6
Response difference (all ethnic.) [14]: −4.7
Response difference (Cauc. only) [15]: −6
Response difference (all ethnic.) [15]: −4.7
Response difference (Cauc. only) [16]: −6.6
Response difference (all ethnic.) [16]: −4.6
Response difference (Cauc. only) [17]: −6.7
Response difference (all ethnic.) [17]: −4.7
Response difference (Cauc. only) [18]: −5.9
Response difference (all ethnic.) [18]: −4.2
Response difference (Cauc. only) [19]: −6.7
Response difference (all ethnic.) [19]: −4.7
Response difference (Cauc. only) [20]: −6.1
Response difference (all ethnic.) [20]: −4.8
Response difference (Cauc. only) [21]: −6.2
Response difference (all ethnic.) [21]: −4.8
Response difference (Cauc. only) [22]: −6.5
Response difference (all ethnic.) [22]: −5.1
Response difference (Cauc. only) [23]: −6.5
Response difference (all ethnic.) [23]: −5.1
Response difference (Cauc. only) [24]: −6.5
Response difference (all ethnic.) [24]: −5.1
Response difference (Cauc. only) [25]: −6.5
Response difference (all ethnic.) [25]: −5.1
Response difference (Cauc. only) [26]: −6.5
Response difference (all ethnic.) [26]: −5.1
Response difference (Cauc. only) [27]: −6.5
Response difference (all ethnic.) [27]: −5.1
Response difference (Cauc. only) [28]: −6.5
Response difference (all ethnic.) [28]: −5.1
Response difference (Cauc. only) [29]: −6.5
Response difference (all ethnic.) [29]: −5.1
Response difference (Cauc. only) [30]: −6.5
Response difference (all ethnic.) [30]: −5.1
Response difference (Cauc. only) [31]: −6.5
Response difference (all ethnic.) [31]: −5.1
Response difference (Cauc. only) [32]: −6.5
Response difference (all ethnic.) [32]: −5.1
Response difference (Cauc. only) [33]: −6.5
Response difference (all ethnic.) [33]: −5.1
Response difference (Cauc. only) [34]: −6.5
Response difference (all ethnic.) [34]: −5.1
Response difference (Cauc. only) [35]: −6.5
Response difference (all ethnic.) [35]: −5.1
Response difference (Cauc. only) [36]: −6.5
Response difference (all ethnic.) [36]: −5.1
Response difference (Cauc. only) [37]: −6.6
Response difference (all ethnic.) [37]: −5.1
Response difference (Cauc. only) [38]: −6.6
Response difference (all ethnic.) [38]: −5.1
Response difference (Cauc. only) [39]: −6.6
Response difference (all ethnic.) [39]: −5.1
Response difference (Cauc. only) [40]: −6.6
Response difference (all ethnic.) [40]: −5.1
Response difference (Cauc. only) [41]: −6.6
Response difference (all ethnic.) [41]: −5.1
Response difference (Cauc. only) [42]: −6.6
Response difference (all ethnic.) [42]: −5.1
Response difference (Cauc. only) [43]: −6.6
Response difference (all ethnic.) [43]: −5.1
Response difference (Cauc. only) [44]: −6.6
Response difference (all ethnic.) [44]: −5.1
Response difference (Cauc. only) [45]: −6.6
Response difference (all ethnic.) [45]: −5.1
Response difference (Cauc. only) [46]: −6.6
Response difference (all ethnic.) [46]: −5.1
Response difference (Cauc. only) [47]: −6.6
Response difference (all ethnic.) [47]: −5.1
Response difference (Cauc. only) [48]: −6.6
Response difference (all ethnic.) [48]: −5.1
Response difference (Cauc. only) [49]: −6.6
Response difference (all ethnic.) [49]: −5.1
Response difference (Cauc. only) [50]: −6.6
Response difference (all ethnic.) [50]: −5.1
